As usually defined, the IC50 is the concentration that inhibits the measured activity by half.

This assay concerns HT-29 human colon cancer cells. As to the kind of experiment: MTT cell growth inhibition, HT-29. In kind it is cell-based. Particulars: Homo sapiens. How it is done: HT-29, SW-480 and HCT-15 human colon adenocarcinoma, MIA PaCa-2 and BxPC-3 human pancreatic cancer, LNCAP human prostate cancer, A549 human lung cancer, MCF-7 (estrogen receptor positive), MDA-MB 231 and SK-BR-3 (estrogen receptor negative) human breast cancer, and Jurkats human leukemia cell lines were obtained from American Type Tissue Collection (Manassas, Va.). All cells lines were grown as monolayers except for the Jurkats which were grown in suspension. The pancreatic and breast cancer cells were grown in Dulbecco's modified Eagle's medium, the prostate, Jurkat, SW-480 and HCT-15 colon cells were grown in RPMI 1640 medium, the lung cells were grown in F-12 and the colon HT-29 cells were grown in McCoy 5A. All media were supplemented with 10% fetal calf serum (Invitrogen, Carlsbad, Calif.) penicillin (50 U/ml), and streptomycin (50 μg/ml) (Invitrogen, Carlsbad, Calif.). Cells were seeded on culture dishes at a density of 25×10^3 cells/cm^2 and incubated at 37° C. in 5% CO2 and 90% relative humidity. Single cell suspensions were obtained by trypsinization (0.05% trypsin/EDTA), and cells were counted using a hemocytometer. Viability was determined by the trypan blue dye exclusion method.
Cell growth inhibitory effect of NOSH compounds were measured using a colorimetric MTT assay kit (Roche, Indianapolis, Ind.). Cancer cells were plated in 96-well plates at a density of 50,000 cells/well. The cells were incubated for 24 h with different concentrations of NOSH compounds. After the indicated time, 10 μl of MTT dye (3-[4,5-dimethylthiazol-2-yl]-2,5-diphenyl tetrazolium bromide, 5 mg/ml in phosphate buffered saline), was added to each well, and the plates were incubated for 2 hours at 37° C. Then, the media was aspirated, and add 100 μl of the solubilization solution (10% SDS in 0.01 M HCl) was added to each well to solubilize the formant crystals. The absorbance of the plates was measured on an ELISA reader at a wavelength of 570 nm. Each sample was performed in triplicate, and the entire experiment was repeated three times.
HT-29 human colon cancer cells were obtained from American Type Tissue Collection (Manassas, Va.) and grown as monolayer in McCoy 5A media that was supplemented with 10% fetal calf serum (Invitrogen, Carlsbad, Ca.), penicillin (50 U/ml), and streptomycin (50 μg/ml) (Invitrogen, Carlsbad, Calif.).
Growth inhibition was measured using a colorimetric MTT assay kit (Roche, Indianapolis, Ind.). Proliferation (PCNA) was assessed using an ELISA kit from Calbiochem, (La Jolla, Calif.). Cell cycle phase distributions and apoptosis of control and treated cells were determined as previously described. All methods are described in Chattopadhyay et al., Biochemical Pharmacology, 2012, 83(6), 715-722.
HT-29, SW-480 and HCT-15 human colon adenocarcinoma, MIA PaCa-2 and BxPC-3 human pancreatic cancer, LNCAP human prostate cancer, A549 and H383 human lung cancer, MCF-7, MDA-MB 231 and SK-BR-3 human breast cancer and Jurkat T cell human leukemia cell lines were obtained from American Type Tissue Collection (Manassas, Va.) All cells lines were grown as monolayers except for the Jurkat T cells which were grown as suspension culture. The pancreatic and breast cancer cells were grown in Dulbecco's modified Eagle's medium, the prostate, Jurkat, SW-480 and HCT-15 colon cells were grown in RPMI 1640 medium, the lung cells were grown in F-12 and the colon HT-29 cells were grown in McCoy 5A. All media were supplemented with 10% fetal calf serum (Invitrogen, Carlsbad, Calif.) penicillin (50 U/ml), and streptomycin (50 μg/ml) (Invitrogen, Carlsbad, Calif.). Cells were seeded on culture dishes at a density of 25×10^3 cells/cm^2 and incubated at 37° C. in 5% CO2 and 90% relative humidity. Single cell suspensions were obtained by trypsinization (0.05% trypsin/EDTA), and cells were counted using a hemacytometer. The final DMSO concentration was adjusted in all media to 1%. Viability was determined by the trypan blue dye exclusion method. […]

Setting [1] is: HT-29, 24 h (Table 5), in combinations the IC50 of ASA with fixed concentrations of SNAP and/or ADT-OH, read-out: IC50 at 24 hours for HT-29 cell growth inhibition.
[2] abbreviates: HT-29 colon cancer cells, 24 hours (Table 3), read-out: IC50 at 24 hours for cell growth inhibition.

The structures appear in SMILES notation. Like-named read-outs stand apart in the source and are kept apart here.

For `Oc1ccc(-c2cc(=S)ss2)cc1` [ADT-OH, 5-(4-hydroxyphenyl)-3H-1,2-dithiole-3-thione, reference compound], the IC50 under setting [1] amounted to 26 ± 3 µM. As to `CC(=O)Oc1ccccc1C(=O)Oc1ccc(-c2cc(=S)ss2)cc1` [HS-ASA, 4-(5-thioxo-5H-1,2-dithiol-3-yl)-phenyl 2-acetoxybenzoate, reference compound], under setting [2], the IC50 was found to be 4 ± 0.5 µM. In the case of `CC(=O)N[C@H](C(=O)O)C(C)(C)SN=O` [SNAP, S-nitroso-N-acetyl-penicillamine, reference compound], the IC50 under setting [1] came out at 530 ± 45 µM.

As for `CC(=O)Oc1ccccc1C(=O)OCCCOO[N+](=O)[O-]` [aliphatic-NO-ASA, 3-(nitroperoxy)propyl 2-acetoxybenzoate, reference compound], under setting [2], the IC50 worked out at 750 ± 35 µM. Take `CC(=O)Oc1ccccc1C(=O)Oc1cccc(CO[N+](=O)[O-])c1` [m-NO-ASA, 2-(acetyloxy)benzoic acid 3-(nitrooxymethyl)phenyl ester, reference compound]: under setting [2], the IC50 was found to be 185 ± 15 µM. The same measure, in the same setting: under `CC(=O)Oc1ccccc1C(=O)Oc1ccccc1CO[N+](=O)[O-]` [o-NO-ASA, 2-(acetyloxy)benzoic acid 2-(nitrooxymethyl)phenyl ester, reference compound] stands 8 ± 3 µM; under `CC(=O)Oc1ccccc1C(=O)Oc1ccc(CO[N+](=O)[O-])cc1` [p-NO-ASA, 2-(acetyloxy)benzoic acid 4-(nitrooxymethyl)phenyl ester, reference compound], 10 ± 2 µM.

These data come from patent US10450260B2, “NO- and H2S-releasing compounds” (RESEARCH FOUNDATION OF THE CITY UNIVERSITY OF NEW YORK, priority 2011, dated 2019).
